# pIC50: −log10 of the molar value.
# System: DK-PGD2-induced IL-13 production in T helper type 2 (Th2) cells
# Assay: DK-PGD2-Induced IL-13 Production Assay in Th2 Cells
# Assay type: cell-based
# Details: human Th2 cells; 500 nM DK-PGD2; 4 hrs at 37° C.; 10% human AB serum; ELISA; read-out: IC50 value, inhibition of IL-13 production
# Protocol: Cultures of Th2 cells were established from blood of healthy human volunteers according to the following procedure. Peripheral blood mononuclear cells (PBMC) were first isolated from 50 mL of fresh blood by Ficoll-Hypaque density gradient centrifugation, followed by CD4^+ cell purification using a CD4^+ T Cell Isolation Kit II (from Miltenyi Biotec Inc.). The CD4^+ T cells were then differentiated to Th2 cells by culturing the cells in X-VIVO 15® medium (from Cambrex BioScience Walkersville Inc.) containing 10% human AB serum (serum of blood type AB from Invitrogen Corporation), 50 U/mL of recombinant human interleukin-2 (rhIL-2) (from PeproTech Inc.) and 100 ng/mL of recombinant human interleukin-4 (rhIL-4) (from PeproTech Inc.) for 7 days. The Th2 cells were isolated using a CD294 (CRTH2) MicroBead Kit (from Miltenyi Biotec Inc.) and amplified in X-VIVO 15® medium containing 10% human AB serum and 50 U/mL of rhIL-2 for 2 to 5 weeks. In general, 70% to 80% of the Th2 cells used in the assay are CRTH2-positive when analyzed by fluorescence-activated cell sorting using the BM16 antibody (as previously described) conjugated to phycoerythrin (PE).
# To determine cellular inhibitory potency, compounds at various concentrations were incubated with 2.5×10^4 Th2 cells and 500 nM DK-PGD2 for 4 hrs at 37° C. in 200 μL of X-VIVO 15® medium containing 10% human AB serum. […] The spontaneous production of IL-13 by Th2 cells was determined in the absence of DK-PGD2 stimulation and the value was subtracted from that in the presence of each compound for percent inhibition and IC50 calculations.
# The percent inhibition of interleukin 13 (IL-13) production for a compound at various concentrations was calculated according to the following formula, [1-(IL-13 production in the presence of compound)/(IL-13 production in the presence of 0.15% DMSO)]×100. The IC50 value, defined as the concentration of a compound that is required for 50% inhibition of IL-13 production, was calculated by fitting the percent inhibition data for 7 concentrations to a sigmoidal dose-response (4 parameter logistic) model in the XLfit® software Excel add-in program [ID Business Solutions Ltd., model 205, where F(x)=(A+(B−A)/(1+((C/x)̂D)))].
row,SMILES,pIC50
1,"CN([C@@H]1CCCc2c(OCC(=O)O)cccc21)S(=O)(=O)c1cc(F)cc(C(F)(F)F)c1 [Example 1-1, {(R)-5-[(3-fluoro-5-trifluoromethyl-benzenesulfonyl)-methyl-amino]-5,6,7,8-tetrahydro-naphthalen-1-yloxy}-acetic acid]",5.33
2,"CCN(CC)c1cc(C(F)(F)F)cc(S(=O)(=O)N(C)[C@@H]2CCCc3c(OCC(=O)O)cccc32)c1 [Example 4-2, {(R)-5-[(3-diethylamino-5-trifluoromethyl-benzenesulfonyl)-methyl-amino]-5,6,7,8-tetrahydro-naphthalen-1-yloxy}-acetic acid]",5.52
3,"CCOc1cc(C(F)(F)F)cc(S(=O)(=O)N(C)[C@@H]2CCCc3c(OCC(=O)O)cccc32)c1 [Example 9-2, {(R)-5-[(3-ethoxy-5-trifluoromethyl-benzenesulfonyl)-methyl-amino]-5,6,7,8-tetrahydro-naphthalen-1-yloxy}-acetic acid]",5.31
4,"CN([C@@H]1CCCc2c(OCC(=O)O)cccc21)S(=O)(=O)c1cc(OC2CCCC2)cc(C(F)(F)F)c1 [Example 9-3, {(R)-5-[(3-cyclopentyloxy-5-trifluoromethyl-benzenesulfonyl)-methyl-amino]-5,6,7,8-tetrahydro-naphthalen-1-yloxy}-acetic acid]",5.29
